Data: ChEMBL document CHEMBL1201862, “PubChem BioAssay data set” (2004)
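Values below derive from 48-hour exposures of cells grown in 96-well plates, with endpoints linearly interpolated between the two concentrations bracketing the appropriate inhibition level. The concentration for 50% growth inhibition is given as GI50.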 Activity calls are given as the source filed them. Cut-off read from the data, not from the text of the source: active = GI50 up to about 1.1 µM and inactive = higher.

Key:
Experiment in all cases: growth of human tumour cells (NCI), 48 h
[1] = system: HOP-92
[2] = system: U-251
[3] = system: HCT-116
[4] = system: SR
[5] = system: MDA-MB-435
[6] = system: OVCAR-5
[7] = system: UACC-62
[8] = system: MDA-N
[9] = system: Malme-3M
[10] = system: PC-3
[11] = system: CAKI-1
[12] = system: MCF7
[13] = system: HCT-15
[14] = system: COLO 205
[15] = system: RXF 393
[16] = system: MOLT-4
[17] = system: OVCAR-3
[18] = system: Hs-578T
[19] = system: IGROV-1
[20] = system: T47D

Compound	GI50 [1]	GI50 [2]	GI50 [3]	GI50 [4]	GI50 [5]	GI50 [6]	GI50 [7]	GI50 [8]	GI50 [9]	GI50 [10]	GI50 [11]	GI50 [12]	GI50 [13]	GI50 [14]	GI50 [15]	GI50 [16]	GI50 [17]	GI50 [18]	GI50 [19]	GI50 [20]
Nc1ccc(-c2nc3ccccc3s2)cc1Cl	> 44.5 µM (inactive)	58.2 µM (inactive)	> 100 µM (inactive)	> 100 µM (inactive)	> 100 µM (inactive)	0.0259 µM (active)	> 100 µM (inactive)	> 100 µM (inactive)	> 100 µM (inactive)	> 73.6 µM (inactive)	> 93.3 µM (inactive)	< 0.01 µM (active)	> 48.8 µM	> 56.2 µM (inactive)	> 39.8 µM (inactive)	16.3 µM (inactive)	< 0.01 µM (active)	56 µM (inactive)	< 0.01 µM (active)	–
CC(=O)OCc1cc(=O)n2c([nH]c3ccccc32)c1C#N	84.3 µM (inactive)	34 µM (inactive)	51.3 µM (inactive)	–	–	> 100 µM (inactive)	59.7 µM (inactive)	> 100 µM (inactive)	89.1 µM (inactive)	40.6 µM (inactive)	28.2 µM (inactive)	> 100 µM (inactive)	21.8 µM	53.3 µM (inactive)	59.3 µM (inactive)	47.1 µM (inactive)	43.2 µM (inactive)	–	55 µM (inactive)	78.5 µM (inactive)
O/N=C/[C@H]1COC2(CCCCC2)O1	31.6 µM (inactive)	> 100 µM (inactive)	> 100 µM (inactive)	–	> 100 µM (inactive)	> 100 µM (inactive)	> 100 µM (inactive)	> 100 µM (inactive)	> 100 µM (inactive)	> 100 µM (inactive)	–	> 100 µM (inactive)	> 100 µM	> 100 µM (inactive)	–	> 100 µM (inactive)	> 100 µM (inactive)	> 100 µM (inactive)	> 100 µM (inactive)	–
CCOC(=O)C1(C)CCCc2sc(N)c(C#N)c21 (centres undefined)	> 100 µM (inactive)	> 100 µM (inactive)	> 100 µM (inactive)	> 100 µM (inactive)	–	> 100 µM (inactive)	> 100 µM (inactive)	> 100 µM (inactive)	> 100 µM (inactive)	> 100 µM (inactive)	–	> 100 µM (inactive)	> 100 µM	> 100 µM (inactive)	> 100 µM (inactive)	> 100 µM (inactive)	–	> 100 µM (inactive)	> 100 µM (inactive)	–
CCOC(=O)C1=C(C)OC(=O)[C@@]2(OC)C=C(Cl)[C@@]12C	> 100 µM (inactive)	> 100 µM (inactive)	> 100 µM (inactive)	> 100 µM (inactive)	> 100 µM (inactive)	> 100 µM (inactive)	> 100 µM (inactive)	> 100 µM (inactive)	> 100 µM (inactive)	> 100 µM (inactive)	> 100 µM (inactive)	> 100 µM (inactive)	> 100 µM	> 100 µM (inactive)	> 100 µM (inactive)	> 100 µM (inactive)	> 100 µM (inactive)	> 100 µM (inactive)	> 100 µM (inactive)	–
COC(=O)N1CC(=O)C(C(=O)NC23CC4CC(CC(C4)C2)C3)C1 (centres undefined)	> 100 µM (inactive)	67.3 µM (inactive)	64.6 µM (inactive)	48.3 µM (inactive)	> 100 µM (inactive)	> 100 µM (inactive)	69.7 µM (inactive)	> 100 µM (inactive)	78.7 µM (inactive)	52 µM (inactive)	> 100 µM (inactive)	45.3 µM (inactive)	39.2 µM	62.1 µM (inactive)	82 µM (inactive)	35.8 µM (inactive)	> 100 µM (inactive)	–	> 100 µM (inactive)	47.8 µM (inactive)
O=C(ON=c1c2ccccc2ccc2ccccc12)c1ccccc1	26.2 µM (inactive)	19.5 µM (inactive)	13.9 µM (inactive)	8.39 µM (inactive)	20.7 µM (inactive)	60.8 µM (inactive)	16.2 µM (inactive)	–	22.9 µM (inactive)	40.1 µM (inactive)	24.4 µM (inactive)	24 µM (inactive)	29.7 µM	18.1 µM (inactive)	17.9 µM (inactive)	7.96 µM (inactive)	23.5 µM (inactive)	22.2 µM (inactive)	24 µM (inactive)	30.3 µM (inactive)
O=C(O)C1CCCCN1CCc1c[nH]c2ccccc12 (centres undefined)	30.7 µM (inactive)	> 100 µM (inactive)	> 100 µM (inactive)	–	> 100 µM (inactive)	> 100 µM (inactive)	> 100 µM (inactive)	> 100 µM (inactive)	> 100 µM (inactive)	> 100 µM (inactive)	> 100 µM (inactive)	> 100 µM (inactive)	> 100 µM	> 100 µM (inactive)	> 100 µM (inactive)	> 100 µM (inactive)	> 100 µM (inactive)	–	> 100 µM (inactive)	> 100 µM (inactive)
O=c1cnc2cc3ccccc3cc2[nH]1	> 100 µM (inactive)	> 100 µM (inactive)	> 100 µM (inactive)	> 100 µM (inactive)	> 100 µM (inactive)	> 100 µM (inactive)	–	> 100 µM (inactive)	> 100 µM (inactive)	> 100 µM (inactive)	> 100 µM (inactive)	> 100 µM (inactive)	> 100 µM	> 100 µM (inactive)	> 100 µM (inactive)	> 100 µM (inactive)	> 100 µM (inactive)	> 100 µM (inactive)	> 100 µM (inactive)	–
CCOC(=O)CCCSCCCC(=O)CCCSCCCC(=O)OCC	> 100 µM (inactive)	> 100 µM (inactive)	> 100 µM (inactive)	> 100 µM (inactive)	> 100 µM (inactive)	> 100 µM (inactive)	> 100 µM (inactive)	> 100 µM (inactive)	–	> 100 µM (inactive)	–	> 100 µM (inactive)	> 100 µM	> 100 µM (inactive)	–	> 100 µM (inactive)	> 100 µM (inactive)	–	> 100 µM (inactive)	> 100 µM (inactive)
CCOC(=O)N1CCC2C(=C(C)C(C)C3=C2C(=O)c2ccccc2C3=O)C1 (centres undefined)	5.41 µM (inactive)	–	–	3.8 µM (inactive)	2.25 µM (inactive)	–	4.41 µM (inactive)	3.33 µM (inactive)	1.82 µM (inactive)	4.4 µM (inactive)	4.73 µM (inactive)	4.21 µM (inactive)	3.88 µM	3.33 µM (inactive)	> 10 µM (inactive)	4.6 µM (inactive)	–	–	> 10 µM (inactive)	9.55 µM (inactive)
O=C(/C=C/c1ccccc1)Oc1ccc(C(=O)/C=C/c2ccc(Cl)cc2)cc1	–	20.7 µM (inactive)	83.4 µM (inactive)	3.23 µM (inactive)	25.1 µM (inactive)	> 100 µM (inactive)	> 100 µM (inactive)	37.2 µM (inactive)	> 100 µM (inactive)	59.7 µM (inactive)	> 100 µM (inactive)	36.4 µM (inactive)	–	> 100 µM (inactive)	97.3 µM (inactive)	> 100 µM (inactive)	> 100 µM (inactive)	–	> 100 µM (inactive)	66.7 µM (inactive)
